Measured values taken from ChEMBL document CHEMBL4406853 (Eur J Med Chem, 2019).
Non-standard residues stand in square brackets, D forms with d. Residues, ends and D or L forms follow the SMILES beside them. ξ: configuration not given here. ξP = O=C(O)C1CCCN1

Columns and labels:
Mu-type opioid receptor [1] = molecular target: T1, Mu-type opioid receptor (Homo sapiens, UniProt P35372); assay: Inhibition of mu opioid receptor (unknown origin) expressed in HEK293 cells assessed as inhibition of forskolin-stimulated intracellular cAMP accumulation preincubated for 30 mins followed by forskolin-stimulation and measured after 60 mins; assay type: functional, cell-based
Mu-type opioid receptor [2] = molecular target: T1, Mu-type opioid receptor; assay: Inhibition of mu opioid receptor (unknown origin) expressed in HEK293 cells assessed as inhibition of forskolin-stimulated […] preincubated for 30 mins followed by forskolin-stimulation and measured after 60 mins; assay type: cell-based
Mu-type opioid receptor [3] = molecular target: T1, Mu-type opioid receptor; assay: Displacement of [3H]DAMGO from mu opioid receptor (unknown origin) expressed in HEK293 cells after 1 hr by liquid scintillation counting; assay type: cell-based
Mus musculus [4] = assay: Antinociceptive activity in icv dosed Kunming mouse; assay type: functional; conditions: central
Mus musculus [5] = assay: Antinociceptive activity in iv dosed Kunming mouse; assay type: functional
Homo sapiens [6] = species on record: Homo sapiens; assay: Selectivity ratio of IC50 for mu opioid receptor (unknown origin) to IC50 for delta opioid receptor (unknown origin) by MVD assay
[7] = molecular target: T2, Delta-type opioid receptor (Homo sapiens, UniProt P41143); assay: Inhibition of delta opioid receptor (unknown origin) by radioligand binding assay
[8] = molecular target: T2, Delta-type opioid receptor; assay: Inhibition of full length delta opioid receptor (unknown origin) assessed as inhibition of forskolin-stimulated intracellular cAMP accumulation; assay type: functional, cell-based
Homo sapiens [9] = species on record: Homo sapiens; assay: Selectivity ratio of IC50 for mu opioid receptor (unknown origin) to IC50 for delta opioid receptor (unknown origin) by radioligand binding assay
Mu-type opioid receptor [10] = molecular target: T1, Mu-type opioid receptor; assay: Inhibition of mu opioid receptor (unknown origin)
[11] = molecular target: T2, Delta-type opioid receptor; assay: Inhibition of full length delta opioid receptor (unknown origin) assessed as increase in beta arrestin 2 recruitment
[12] = molecular target: T2, Delta-type opioid receptor; assay: Inhibition of full length delta opioid receptor (unknown origin) assessed as increase in beta arrestin 1 recruitment
[13] = molecular target: T2, Delta-type opioid receptor; assay: Inhibition of delta opioid receptor (unknown origin) by MVD assay
[14] = molecular target: T3, Kappa-type opioid receptor (Homo sapiens, UniProt P41145); assay: Agonist activity at kappa opioid receptor (unknown origin) assessed as reduction in beta arrestin recruitment relative to control; assay type: functional
[15] = molecular target: T3, Kappa-type opioid receptor; assay: Agonist activity at kappa opioid receptor (unknown origin) assessed as reduction in beta arrestin recruitment; assay type: functional
[16] = molecular target: T3, Kappa-type opioid receptor; assay: Partial agonist activity at kappa opioid receptor (unknown origin) expressed in CHO cells by [35S]-GTPgammaS binding assay relative to control; assay type: functional, cell-based
Mu-type opioid receptor [17] = molecular target: T1, Mu-type opioid receptor; assay: Partial agonist activity at mu opioid receptor (unknown origin) expressed in CHO cells by [35S]-GTPgammaS binding assay; assay type: functional, cell-based
[18] = molecular target: T3, Kappa-type opioid receptor; assay: Partial agonist activity at kappa opioid receptor (unknown origin) expressed in CHO cells by [35S]-GTPgammaS binding assay; assay type: functional, cell-based
[19] = molecular target: T3, Kappa-type opioid receptor; assay: Inhibition of kappa opioid receptor (unknown origin) expressed in CHO cells by [35S]-GTPgammaS binding assay; assay type: functional, cell-based
Homo sapiens [20] = species on record: Homo sapiens; assay: Selectivity ratio of Ki for mu opioid receptor (unknown origin) expressed in CHO cells to Ki for delta opioid receptor (unknown origin) expressed in CHO cells; assay type: cell-based
[21] = molecular target: T3, Kappa-type opioid receptor; assay: Inhibition of kappa opioid receptor (unknown origin) in presence of DPDPE by [35S]-GTPgammaS binding assay; assay type: functional
Mu-type opioid receptor [22] = molecular target: T1, Mu-type opioid receptor; assay: Inhibition of mu opioid receptor (unknown origin) in presence of DAMGO by [35S]-GTPgammaS binding assay; assay type: functional
[23] = molecular target: T3, Kappa-type opioid receptor; assay: Inhibition of kappa opioid receptor (unknown origin) in presence of DAMGO by [35S]-GTPgammaS binding assay; assay type: functional
[24] = molecular target: T2, Delta-type opioid receptor; assay: Inhibition of delta opioid receptor (unknown origin) in presence of DAMGO by [35S]-GTPgammaS binding assay; assay type: functional
[25] = molecular target: T2, Delta-type opioid receptor; assay: Inhibition of delta opioid receptor (unknown origin) in presence of DPDPE by [35S]-GTPgammaS binding assay relative to control; assay type: functional
[26] = molecular target: T3, Kappa-type opioid receptor; assay: Inhibition of kappa opioid receptor (unknown origin) in presence of DPDPE by [35S]-GTPgammaS binding assay relative to control; assay type: functional
Mu-type opioid receptor [27] = molecular target: T1, Mu-type opioid receptor; assay: Inhibition of mu opioid receptor (unknown origin) in presence of DPDPE by [35S]-GTPgammaS binding assay; assay type: functional
Mu-type opioid receptor [28] = molecular target: T1, Mu-type opioid receptor; assay: Inhibition of mu opioid receptor (unknown origin) in presence of DPDPE by [35S]-GTPgammaS binding assay relative to control; assay type: functional
[29] = molecular target: T2, Delta-type opioid receptor; assay: Inhibition of delta opioid receptor (unknown origin) in presence of DAMGO by [35S]-GTPgammaS binding assay relative to control; assay type: functional
[30] = molecular target: T2, Delta-type opioid receptor; assay: Inhibition of delta opioid receptor (unknown origin) in presence of DPDPE by [35S]-GTPgammaS binding assay; assay type: functional
[31] = molecular target: T3, Kappa-type opioid receptor; assay: Inhibition of kappa opioid receptor (unknown origin) in presence of DAMGO by [35S]-GTPgammaS binding assay relative to control; assay type: functional
[32] = molecular target: Mitogen-activated protein kinase 3 (Homo sapiens, UniProt P27361); assay: Inhibition of ERK1 phosphorylation (unknown origin)
MAP kinase p38 = MAP kinase p38 (Homo sapiens, UniProt O15264+Q15759+Q16539+P53778); assay: Inhibition of p38 phosphorylation (unknown origin); assay type: protein assay
[33] = molecular target: Mitogen-activated protein kinase 1 (Homo sapiens, UniProt P28482); assay: Inhibition of ERK2 phosphorylation (unknown origin)
Mu-type opioid receptor [34] = molecular target: T4, Mu-type opioid receptor (Cavia porcellus, UniProt P97266); assay: Agonist activity at mu opioid receptor in guinea pig brain membranes by [35S]-GTPgammaS binding assay; assay type: functional, cell membranes
Mu-type opioid receptor [35] = molecular target: T4, Mu-type opioid receptor; assay: Inhibition of mu opioid receptor in guinea pig brain membranes; assay type: cell membranes
[36] = molecular target: Mu-type opioid receptor (Cavia porcellus) (UniProt P97266); assay: Agonist activity at mu opioid receptor in guinea pig brain membranes by [35S]-GTPgammaS binding assay relative to control; assay type: functional, cell membranes
[37] = molecular target: Kappa-type opioid receptor (Cavia porcellus) (UniProt P41144); assay: Agonist activity at kappa opioid receptor in guinea pig brain membranes by [35S]-GTPgammaS binding assay relative to control; assay type: functional, cell membranes
[38] = Inhibition of delta opioid receptor in guinea pig brain membranes; assay type: cell membranes, Cavia porcellus
[39] = molecular target: T5, Kappa-type opioid receptor (Cavia porcellus, UniProt P41144); assay: Agonist activity at kappa opioid receptor in guinea pig brain membranes by [35S]-GTPgammaS binding assay; assay type: functional, cell membranes
Cavia porcellus = species on record: Cavia porcellus; assay: Agonist activity at delta opioid receptor in guinea pig brain membranes by [35S]-GTPgammaS binding assay relative to control; assay type: cell membranes
[40] = molecular target: T5, Kappa-type opioid receptor; assay: Inhibition of kappa opioid receptor in guinea pig brain membranes; assay type: cell membranes
[41] = Agonist activity at delta opioid receptor in guinea pig brain membranes by [35S]-GTPgammaS binding assay; assay type: cell membranes, Cavia porcellus

T3 sequence (P41145 whole entry): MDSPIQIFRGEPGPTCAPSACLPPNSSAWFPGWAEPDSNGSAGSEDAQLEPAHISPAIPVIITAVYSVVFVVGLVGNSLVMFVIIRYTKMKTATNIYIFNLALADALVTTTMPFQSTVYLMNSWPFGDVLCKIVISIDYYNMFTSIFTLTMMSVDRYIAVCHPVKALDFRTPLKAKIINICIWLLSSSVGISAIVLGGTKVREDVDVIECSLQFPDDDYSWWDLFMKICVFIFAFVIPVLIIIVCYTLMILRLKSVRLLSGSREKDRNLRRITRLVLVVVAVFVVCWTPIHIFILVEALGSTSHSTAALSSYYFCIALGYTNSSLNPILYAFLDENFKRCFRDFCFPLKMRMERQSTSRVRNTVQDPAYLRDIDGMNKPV
T1 sequence (P35372 whole entry): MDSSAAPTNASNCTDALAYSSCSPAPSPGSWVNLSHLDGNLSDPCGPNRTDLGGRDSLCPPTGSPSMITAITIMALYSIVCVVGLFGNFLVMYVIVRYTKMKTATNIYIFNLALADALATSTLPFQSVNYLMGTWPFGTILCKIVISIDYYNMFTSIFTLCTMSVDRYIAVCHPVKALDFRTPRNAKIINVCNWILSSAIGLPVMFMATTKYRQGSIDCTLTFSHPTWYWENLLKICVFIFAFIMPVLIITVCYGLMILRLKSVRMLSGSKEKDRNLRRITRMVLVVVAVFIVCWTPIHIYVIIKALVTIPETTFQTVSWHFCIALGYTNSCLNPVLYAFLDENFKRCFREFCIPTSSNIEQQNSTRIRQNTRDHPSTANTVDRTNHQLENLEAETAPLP
T2 sequence (P41143 whole entry): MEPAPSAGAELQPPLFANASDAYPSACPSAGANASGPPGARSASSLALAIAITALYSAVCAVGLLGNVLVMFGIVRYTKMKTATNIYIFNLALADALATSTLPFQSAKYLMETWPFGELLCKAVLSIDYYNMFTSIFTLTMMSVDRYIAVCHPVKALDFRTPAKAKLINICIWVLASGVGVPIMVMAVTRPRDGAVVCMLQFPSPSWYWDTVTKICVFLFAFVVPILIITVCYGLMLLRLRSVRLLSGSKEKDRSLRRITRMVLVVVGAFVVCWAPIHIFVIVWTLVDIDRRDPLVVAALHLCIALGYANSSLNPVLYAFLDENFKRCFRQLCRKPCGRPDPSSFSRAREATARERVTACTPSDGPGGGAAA
T4 sequence (P97266 whole entry): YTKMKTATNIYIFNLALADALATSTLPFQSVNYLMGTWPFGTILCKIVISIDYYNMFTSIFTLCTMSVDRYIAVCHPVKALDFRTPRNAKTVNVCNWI
T5 sequence (P41144 whole entry): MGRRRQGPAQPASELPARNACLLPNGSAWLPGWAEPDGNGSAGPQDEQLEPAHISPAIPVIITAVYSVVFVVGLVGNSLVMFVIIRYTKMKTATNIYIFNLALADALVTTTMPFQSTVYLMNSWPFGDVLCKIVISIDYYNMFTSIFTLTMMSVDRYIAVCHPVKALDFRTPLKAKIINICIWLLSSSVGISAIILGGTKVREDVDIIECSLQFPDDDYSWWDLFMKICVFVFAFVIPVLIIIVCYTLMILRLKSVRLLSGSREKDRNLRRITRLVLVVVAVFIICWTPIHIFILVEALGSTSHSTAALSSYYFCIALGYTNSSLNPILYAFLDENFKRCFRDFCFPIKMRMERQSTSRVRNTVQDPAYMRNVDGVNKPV
Chain of Mitogen-activated protein kinase 1 (P28482 whole entry): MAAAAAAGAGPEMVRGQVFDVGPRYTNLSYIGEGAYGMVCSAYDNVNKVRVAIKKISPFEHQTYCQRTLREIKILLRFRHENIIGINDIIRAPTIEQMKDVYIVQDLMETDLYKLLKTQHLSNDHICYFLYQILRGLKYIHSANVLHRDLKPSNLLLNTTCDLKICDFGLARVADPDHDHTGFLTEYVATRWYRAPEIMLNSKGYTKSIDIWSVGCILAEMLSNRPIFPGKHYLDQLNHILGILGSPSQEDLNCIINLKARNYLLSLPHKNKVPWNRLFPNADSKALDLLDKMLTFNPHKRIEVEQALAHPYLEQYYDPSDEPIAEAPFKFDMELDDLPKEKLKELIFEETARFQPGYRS
Chain of Mitogen-activated protein kinase 3 (P27361 whole entry): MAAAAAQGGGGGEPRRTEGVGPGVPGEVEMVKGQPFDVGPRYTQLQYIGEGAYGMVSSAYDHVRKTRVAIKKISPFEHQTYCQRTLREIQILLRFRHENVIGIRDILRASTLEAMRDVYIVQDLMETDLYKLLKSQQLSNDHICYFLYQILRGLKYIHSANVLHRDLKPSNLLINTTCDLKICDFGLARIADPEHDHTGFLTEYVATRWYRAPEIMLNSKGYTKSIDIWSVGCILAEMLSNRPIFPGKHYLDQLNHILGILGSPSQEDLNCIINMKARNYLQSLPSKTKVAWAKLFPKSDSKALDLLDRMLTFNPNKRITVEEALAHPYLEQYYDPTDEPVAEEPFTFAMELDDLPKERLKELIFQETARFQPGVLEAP
Chain of Mu-type opioid receptor (Cavia porcellus) (P97266 whole entry): as the sequence (P97266 whole entry) above
Chain of Kappa-type opioid receptor (Cavia porcellus) (P41144 whole entry): as the sequence (P41144 whole entry) above

In the case of CN(C)[C@H](CNC(=O)NCCc1ccsc1)Cc1cccc2ccccc12, the EC50 (Mu-type opioid receptor [1]) is reported as 0.203 µM and the EC50 (Mu-type opioid receptor [2]) is reported as 0.203 µM.

C=C(C(N)=O)C(NC(=O)[C@H](Cc1ccccc1)NC(=O)[C@@H](C)N(C)C(=O)C(N)Cc1c(C)cc(O)cc1C)c1ccco1 (some centres not stated) gave an EC50 (Mu-type opioid receptor [3]) of 1.77 to 5.15 pM, a Ki (Mu-type opioid receptor [3]) of 0.0109 to 0.0511 nM and an ED50 (Mus musculus [4]) of 0.0226 µmol/kg. It also gave an ED50 (Mus musculus [5]) of 0.000489 µmol/kg.

Compound C[C@H](Cc1ccsc1)NC(=O)NC[C@H](Cc1ccc2ccccc2c1)N(C)C has an EC50 (Mu-type opioid receptor [1]) of 0.0524 to 0.0911 µM and an EC50 (Mu-type opioid receptor [2]) of 0.0524 to 0.0911 µM.

In the case of CC(C)C[C@H](NC(=O)[C@H](CC(=O)O)NC(=O)[C@H](CC(C)C)NC(=O)C1CCCN1C(=O)[C@@H](N)Cc1ccc(O)cc1)C(=O)O (some centres not stated) (H-Y[ξP]LDL-OH), the Ratio IC50 (Homo sapiens [6]) is reported as 500, the IC50 [7] is reported as 2 µM and the IC50 [8] is reported as 6.31 µM. It also gave a Ratio IC50 (Homo sapiens [9]) of 500, an IC50 (Mu-type opioid receptor [10]) of 1090 µM and an EC50 [11] of 79.4 µM. The EC50 [12] was 79.4 µM and the IC50 [13] was 51 µM.

Work on CCC1CC2CC3c4[nH]c5ccc(O)cc5c4CCN(C2)C13 (configuration not stated) yielded an Emax [14] of 13%, an EC50 [15] of 0.11 µM and an Emax [16] of 72%. The EC50 (Mu-type opioid receptor [17]) was 16 µM, the EC50 [18] was 8.75 µM and the Ki [19] was 0.72 µM. It also gave a Ratio Ki (Homo sapiens [20]) of 2.

CC[C@@H]1CN2CC[C@]3(Nc4cccc(-c5ccccc5)c4C3=O)[C@@H]2C[C@@H]1/C(=C\OC)C(=O)OC showed an EC50 [21] of 0.0014 µM, an EC50 (Mu-type opioid receptor [22]) of 0.0014 µM and an EC50 [23] of 0.0014 µM. It also gave an EC50 [24] of 0.0014 µM, an Emax [25] of 123% and an Emax [26] of 123%. For the same compound, the EC50 (Mu-type opioid receptor [27]) was 0.0014 µM, the Emax (Mu-type opioid receptor [28]) was 123% and the Emax [29] was 123%. For the same compound, the EC50 [30] was 0.0014 µM and the Emax [31] was 123%.

In the case of C[C@@H](Cc1ccsc1)NC(=O)NC[C@H](Cc1ccc2ccccc2c1)N(C)C, the EC50 (Mu-type opioid receptor [1]) is reported as 0.0524 to 0.0911 µM and the EC50 (Mu-type opioid receptor [2]) is reported as 0.0524 to 0.0911 µM.

Work on C=C(C(N)=O)C(NC(=O)[C@H](Cc1c[nH]c2ccccc12)NC(=O)[C@@H](C)N(C)C(=O)C(N)Cc1c(C)cc(O)cc1C)c1ccco1 (some centres not stated) yielded an EC50 (Mu-type opioid receptor [3]) of 1.77 to 5.15 pM, a Ki (Mu-type opioid receptor [3]) of 0.0109 to 0.0511 nM and an ED50 (Mus musculus [4]) of 0.0152 µmol/kg. It also gave an ED50 (Mus musculus [5]) of 0.000382 µmol/kg.

C=C(C(N)=O)C(NC(=O)[C@H](Cc1c[nH]c2ccccc12)NC(=O)[C@@H](C)N(C)C(=O)C(N)Cc1c(C)cc(O)cc1C)c1ccccc1 (some centres not stated) gave an EC50 (Mu-type opioid receptor [3]) of 1.77 to 5.15 pM and a Ki (Mu-type opioid receptor [3]) of 0.0109 to 0.0511 nM.

C=C(C(N)=O)C(NC(=O)[C@H](Cc1c[nH]c2ccccc12)NC(=O)[C@@H](C)N(C)C(=O)[C@@H](N)Cc1ccc(O)cc1)c1ccco1 (some centres not stated) gave an EC50 (Mu-type opioid receptor [3]) of 1450 to 39000 pM.

CN(C(=O)/C=C/c1ccoc1)[C@@H]1CC[C@@]2(O)[C@H]3Cc4ccc(O)c5c4[C@@]2(CCN3CC2CC2)[C@H]1O5 [NALFURAFINE] showed an EC50 [32] of 0.00055 µM, an EC50 (MAP kinase p38) of 0.0052 µM and an EC50 [33] of 0.00055 µM.

CC[C@@H]1CN2CCc3c([nH]c4cccc(OC)c34)[C@@H]2C[C@@H]1/C(=C\OC)C(=O)OC gave an EC50 (Mu-type opioid receptor [34]) of 0.23 µM, a Ki (Mu-type opioid receptor [35]) of 0.013 µM and an Emax [36] of 65%. For the same compound, the Emax [37] was 65%, the Ki [38] was 0.155 µM and the EC50 [39] was 0.23 µM. For the same compound, the Emax (Cavia porcellus) was 65%, the Ki [40] was 0.123 µM and the EC50 [41] was 0.23 µM.

In the case of C[C@@H](Cc1ccsc1)NC(=O)NC[C@H](Cc1cccc2ccccc12)N(C)C, the EC50 (Mu-type opioid receptor [1]) is reported as 0.456 µM and the EC50 (Mu-type opioid receptor [2]) is reported as 0.456 µM.
